In assay [1] the test system is HSV-1 (strain 377, TK+). Description: Antiviral activity against HSV-1. Type of assay: cell-based. On the procedure: (§1) D-2'-CdG and L-2'-CdG were tested, alongside D,L-2'-CdG, against both HSV-1 (strain 377, TK+; obtained from Dr. Earl Kern, University of Alabama) and HSV-2 (strain MS, TK+; also obtained from Dr. Earl Kern). In these tests (Table 5), Ara-A and acyclovir (ACV) were the positive control drugs. In four tests vs. HSV-1, the antiviral activity (VR) and potency (MIC50) of D-2'-CdG were approximately the same as those of racemic 2-CdG. L-2'-CdG was only modestly active.

For assay [2], the system named is HSV-2 (strain MS, TK+). Description: Antiviral activity against HSV-2. Type of assay: cell-based. How it is done: as §1
These compounds were tested against HSV-2(TK^+). The VR of ACV was somewhat higher than the VR values of D-2'-CdG and D,L-2'-CdG, but the values of MIC50 of the two forms of 2'-CdG were lower. In addition, experiments comparing the antiviral activity D-2'-CdG with acyclovir against HSV-1 in human foreskin fibroblasts have shown an even greater potency, in favor of D-2'-CdG.

Assay [3] relates to HBV. Description: HBV DNA production and replication in 2.2.15 cell cultures. Particulars: 100 uM. The class given is cell-based, Hepatitis B virus (HBV). How it is done:
2'-CdG was tested at three concentrations (50 ng/ml, 500 ng/ml, and 5 ug/ml) against the HBV-producing, human liver cell line, 2.2.15 (Sells et al., J. Virol. 62:2836, 1989). A racemic (D,L) preparation, as well as the purified D and L isomers were tested. For these analyses compounds were tested in duplicate at all concentrations. Ara-AMP and ddG (2'3'-dideoxyguanosine) were used as HBV inhibitory control compounds. […] The nucleoside analog, ddG was used as an additional control compound since ddG has activity against duck hepatitis B virus in chronically infected Peking ducks (Lee et al., Antimicrob. Agents Chemother. 33:336, 1989) and 2'-CdG is also a deoxyguanosine analog.
2.2.15 cells were seeded in 6 well culture plates and grown to confluence over a 10 day period in medium with 5% FBS. Test compounds were then added daily for a continuous 10 day period in medium with 1% dialyzed FBS. […] Compounds were tested, in duplicate cultures, at 3 concentrations covering a 100-fold range. Culture medium (changed daily during the treatment period) was collected and stored for analysis of extracellular (virion) HBV DNA from days 0, 3, 6, and 10 of the treatment period. This allowed for an analysis of the level of HBV virion production during discrete 24 hour intervals and reduced the potential for the buildup of toxic metabolites derived from the test compounds. Treated cells were lysed following the 10th day of treatment for the analysis of intracellular HBV genomic forms. HBV DNA was analyzed in a quantitative manner for (i) overall levels (both extracellular and intracellular DNA) and (ii) the relative rate of HBV replication (intracellular DNA only).
HBV DNA levels were measured by comparison to known amounts of HBV DNA standards applied to every nitrocellulose filter (gel or slot blot) using an AMBIS Beta Scanner. Standard curves, generated by multiple analyses, were used to correlate CPM measurements with relative levels of target HBV DNA. The levels of HBV DNA in each of three classes of intracellular viral genomic forms were individually quantitated: integrated HBV DNA, episomal monomeric genomes and HBV DNA replication intermediates (RI). Integrated HBV DNA was used to normalize the relative amounts of DNA in each lane because the levels of this class of HBV DNA would be expected to remain constant on a per cell basis. The levels of the monomeric HBV genomes and RI were used as an indicator of the relative level of HBV replication.

For assay [4], the system named is human CMV. The assay is described as follows: In vitro activity against human CMV in human foreskin fibroblast cells. Type of assay: cell-based. Particulars: Human betaherpesvirus 5, read-out: ED50 value (median dose at which 50% antiviral efficacy is observed). On the procedure: The in vitro activity of D-2'-CdG was also compared with the current investigational drug of choice for human CMV, DHPG. These experiments were carried out in human foreskin fibroblast cells.

In assay [5] the target is T1, HSV-1 TK (Human herpesvirus 1, UniProt P0DTH5).
T1 construct: HSV thymidine kinase (HSV TK) was isolated from HELA (BU25) cells infected with the SW148 strain of HSV-1; made in house; host or cells: HeLa (BU25) thymidine-kinase-deficient cells infected with HSV-1 strain S148/SW148
T1 sequence (P0DTH5 whole entry): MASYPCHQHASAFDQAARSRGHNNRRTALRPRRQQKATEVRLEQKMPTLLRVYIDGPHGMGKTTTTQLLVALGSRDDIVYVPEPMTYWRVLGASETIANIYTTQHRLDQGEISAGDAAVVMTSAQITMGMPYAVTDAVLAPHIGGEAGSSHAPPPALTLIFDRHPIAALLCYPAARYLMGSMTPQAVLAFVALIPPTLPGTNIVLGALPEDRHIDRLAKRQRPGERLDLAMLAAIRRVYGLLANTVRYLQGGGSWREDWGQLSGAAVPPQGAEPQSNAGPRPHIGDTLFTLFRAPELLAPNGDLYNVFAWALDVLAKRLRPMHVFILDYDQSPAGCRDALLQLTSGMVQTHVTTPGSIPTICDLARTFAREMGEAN
Description: Competitive inhibition of [3H]-thymidine phosphorylation by partially purified HSV-1 TK. Type of assay: biochemical. How it is done:
The Ki's were determined from a plot of the slope of each line versus the concentration of the competitor (D-, L, or D,L-2'CdG) and are summarized below: TABLE 2

The mark [6] stands for this setting: 24 hours following 10th day of treatment.

pKi: −log10 of the molar value. ≈ marks a conversion by molar mass, not a printed value. Where “and” joins values, the source holds several entries; their conditions need not be identical. Equal values may be shown once.

4 compounds from patent EP0684822B1, “CARBOCYCLIC DEOXYGUANOSINE ANALOGS FOR THE TREATMENT OF VIRAL INFECTIONS” (SOUTHERN RESEARCH INSTITUTE, priority 1993, dated 1994) can be followed below.

A word on the pKi: it is −log10 of the Ki, conventionally taken in molar units. The low end stands for a high Ki, the high end for a low Ki.

In the case of `Nc1ncnc2c1ncn2[C@@H]1O[C@H](CO)[C@@H](O)[C@@H]1O` [Ara-A, adenosine arabinoside, reference compound], the VR in assay [1] (HSV-1, range of tests) was 1.6-2.5; in assay [2] (HSV-2) it was 1.3. In addition, the EC50 in assay [1] (Human alphaherpesvirus 1, read-out: Mic50) was 10 to 34 µg/mL (≈ 37.4 to 127 µM); in assay [2] (Human alphaherpesvirus 2, read-out: Mic50), 50 µg/mL (≈ 187 µM).

Take `Nc1nc2c(ncn2[C@H]2CC[C@@H](CO)O2)c(=O)[nH]1` [DDG, 2'3'-dideoxyguanosine, reference compound]: in assay [3] (setting [6]), the “INTRACELLULAR HBV DNA INTEG.” value is 1.6 PG/UG CELL DNA and 1.7 PG/UG CELL DNA; the “INTRACELLULAR HBV DNA MONO.” value is 0.2 PG/UG CELL DNA and 0.1 PG/UG CELL DNA; the “INTRACELLULAR HBV DNA RI” value is reported as 0.1 PG/UG CELL DNA. Besides, in assay [3] (day 0 of treatment), the “HBV DNA IN CULTURE MEDIUM DAY 0” value was 49 pg/mL and 58 pg/mL. The “HBV DNA IN CULTURE MEDIUM DAY 3” value in assay [3] (day 3) was 35 pg/mL and 41 pg/mL. Further, the “HBV DNA IN CULTURE MEDIUM DAY 10” value in assay [3] (day 10) is 0 pg/mL.

In the case of `Nc1nc(O)c2ncn(COC(CO)CO)c2n1` [DHPG, dihydroxy propoxymethyl guanine, reference compound], the EC50 in assay [4] was 0.2 µg/mL (≈ 0.784 µM).

As to `Nc1nc2c(ncn2[C@H]2C[C@H](O)[C@@H](CO)O2)c(=O)[nH]1` [dGuo, reference compound], the negative-log Ki (pKi) in assay [5] was 4.98.
